This passage reports IC50 results from patent US8664203B2, “Thiazole derivatives and their use as P2Y12 receptor antagonists” (Actelion Pharmaceuticals Ltd., priority 2009, dated 2014).

Structures are written as SMILES.

For the experiment, the target named is T1, human P2Y12 receptor (Homo sapiens, UniProt Q9H244).
T1 construct: expressed in transfected cells; host or cells: CHO cells
T1 sequence (Q9H244 whole entry): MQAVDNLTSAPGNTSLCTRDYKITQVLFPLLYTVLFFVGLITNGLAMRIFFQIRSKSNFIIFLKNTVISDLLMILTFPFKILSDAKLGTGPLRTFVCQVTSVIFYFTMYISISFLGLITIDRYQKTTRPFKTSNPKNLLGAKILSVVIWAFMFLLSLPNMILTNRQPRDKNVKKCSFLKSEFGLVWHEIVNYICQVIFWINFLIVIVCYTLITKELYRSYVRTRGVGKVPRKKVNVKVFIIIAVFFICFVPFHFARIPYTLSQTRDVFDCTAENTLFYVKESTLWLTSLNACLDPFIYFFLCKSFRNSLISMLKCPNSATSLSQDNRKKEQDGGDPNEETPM
The experiment in a line: P2Y12 receptor binding assay. As to conditions: CHO cells with recombinant expression of the human P2Y12 receptor; tritium-labeled 2-methyl-S-ADP; RT, 2 hours. The protocol:
P2Y12 Receptor Binding Assay
Chinese Hamster Ovary (CHO) cells with recombinant expression of the human P2Y12 receptor were cultured in 24 well cell-culture plates. Cells were washed three times with binding buffer (50 mM Tris pH 7.4, 100 mM NaCl, 1 mM EDTA, 0.5% BSA). The cells were then incubated with 0.5 ml per well binding buffer containing tritium-labeled 2-methyl-thio-adenosine 5′-diphosphate (2-methyl-S-ADP) (between 100′000 and 300′000 dpm per well) and various concentrations of test compounds. After incubation at RT for 2 hours, cells were washed three times with binding buffer. Then, cells were solubilized by addition of 0.5 ml solubilization buffer (SDS, NaOH, EDTA). The content of each well was then transferred into beta-counter vials and 2.0 ml of Ultima Gold Scintillation liquid was added.
With `CCOC(=O)N1CCN(C(=O)CNC(=O)c2csc(-c3ccccc3)n2)CC1` [Example 1, 4-{2-[(2-Phenyl-thiazole-4-carbonyl)-amino]-acetyl}-piperazine-1-carboxylic acid ethyl ester], the IC50 – broadly, the midpoint of a concentration-inhibition curve – amounted to 9150 nM.
In the case of `CCOC(=O)N1CCN(C(=O)[C@H](CCC(=O)O)NC(=O)c2csc(-c3ccccc3)n2)CC1` [Example 2, 4-{(S)-4-Carboxy-2-[(2-phenyl-thiazole-4-carbonyl)-amino]-butyryl}-piperazine-1-carboxylic acid ethyl ester], the IC50 was 246 nM.
In the case of `CCCCOC(=O)N1CCN(C(=O)[C@H](CCC(=O)O)NC(=O)c2csc(-c3ccccc3Oc3ccccc3)n2)CC1` [Example 3, 4-((S)-4-Carboxy-2-{[2-(2-phenoxy-phenyl)-thiazole-4-carbonyl]-amino}-butyryl)-piperazine-1-carboxylic acid butyl ester] it was 1470 nM.
As for `CCCCOC(=O)N1CCN(C(=O)[C@H](CCC(=O)O)NC(=O)c2csc(-c3cccc(OC)c3)n2)CC1` [Example 4, 4-((S)-4-Carboxy-2-{[2-(3-methoxy-phenyl)-thiazole-4-carbonyl]-amino}-butyryl)-piperazine-1-carboxylic acid butyl ester], the IC50 was determined as 249 nM.
With `CCCCOC(=O)N1CCN(C(=O)[C@H](CCC(=O)O)NC(=O)c2csc(-c3ccccc3OC)n2)CC1` [Example 5, 4-((S)-4-Carboxy-2-{[2-(2-methoxy-phenyl)-thiazole-4-carbonyl]-amino}-butyryl)-piperazine-1-carboxylic acid butyl ester] the figure was 464 nM; with `CCCCOC(=O)N1CCN(C(=O)[C@H](CCC(=O)O)NC(=O)c2csc(-c3ccccc3C)n2)CC1` [Example 6, 4-{(S)-4-Carboxy-2-[(2-o-tolyl-thiazole-4-carbonyl)-amino]-butyryl}-piperazine-1-carboxylic acid butyl ester], 334 nM; with `CCCCOC(=O)N1CCN(C(=O)[C@H](CCC(=O)O)NC(=O)c2csc(-c3ccccc3)n2)CC1` [Example 7, 4-{(S)-4-Carboxy-2-[(2-phenyl-thiazole-4-carbonyl)-amino]-butyryl}-piperazine-1-carboxylic acid butyl ester], 16 nM.
With `CCCCOC(=O)N1CCN(C(=O)[C@H](CP(=O)(OCC)OCC)NC(=O)c2csc(-c3ccccc3)n2)CC1` [Example 8, 4-{(R)-3-(Diethoxy-phosphoryl)-2-[(2-phenyl-thiazole-4-carbonyl)-amino]-propionyl}-piperazine-1-carboxylic acid butyl ester] the figure was 502 nM.
In the case of `CCCCOC(=O)N1CCN(C(=O)[C@H](CP(=O)(O)O)NC(=O)c2csc(-c3ccccc3)n2)CC1` [Example 9, 4-{(R)-2-[(2-Phenyl-thiazole-4-carbonyl)-amino]-3-phosphono-propionyl}-piperazine-1-carboxylic acid butyl ester] it was 2 nM.
In the case of `CCCCOC(=O)N1CCN(C(=O)[C@H](Cc2ccc(P(=O)(OCC)OCC)cc2)NC(=O)c2csc(-c3ccccc3)n2)CC1` [Example 10, 4-{(S)-3-[4-(Diethoxy-phosphoryl)-phenyl]-2-[(2-phenyl-thiazole-4-carbonyl)-amino]-propionyl}-piperazine-1-carboxylic acid butyl ester], the IC50 is 635 nM.
With `CCCCOC(=O)N1CCN(C(=O)[C@H](Cc2ccc(P(=O)(O)O)cc2)NC(=O)c2csc(-c3ccccc3)n2)CC1` [Example 11, 4-[(S)-2-[(2-Phenyl-thiazole-4-carbonyl)-amino]-3-(4-phosphono-phenyl)-propionyl]-piperazine-1-carboxylic acid butyl ester] the figure was 1 nM; with `CCOC(=O)N1CCN(C(=O)[C@H](Cc2ccc(P(=O)(OCC)OCC)cc2)NC(=O)c2csc(-c3ccccc3)n2)CC1` [Example 12, 4-{(S)-3-[4-(Diethoxy-phosphoryl)-phenyl]-2-[(2-phenyl-thiazole-4-carbonyl)-amino]-propionyl}-piperazine-1-carboxylic acid ethyl ester], 4940 nM; with `CCOC(=O)N1CCN(C(=O)[C@H](Cc2ccc(P(=O)(O)O)cc2)NC(=O)c2csc(-c3ccccc3)n2)CC1` [Example 13, 4-[(S)-2-[(2-Phenyl-thiazole-4-carbonyl)-amino]-3-(4-phosphono-phenyl)-propionyl]-piperazine-1-carboxylic acid ethyl ester], 2 nM.
In the case of `CCCCOC(=O)N1CCN(C(=O)[C@H](CCC(=O)OC(C)(C)C)NC(=O)c2nc(-c3ccccc3)sc2Br)CC1` [Example 14, 4-{(S)-2-[(5-Bromo-2-phenyl-thiazole-4-carbonyl)-amino]-4-tert-butoxycarbonyl-butyryl}-piperazine-1-carboxylic acid butyl ester] it was 1220 nM; in that of `CCCCOC(=O)N1CCN(C(=O)[C@H](CCC(=O)O)NC(=O)c2nc(-c3ccccc3)sc2Br)CC1` [Example 15, 4-{(S)-2-[(5-Bromo-2-phenyl-thiazole-4-carbonyl)-amino]-4-carboxy-butyryl}-piperazine-1-carboxylic acid butyl ester], 41 nM; in that of `CCCCOC(=O)N1CCN(C(=O)[C@H](CCC(=O)O)NC(=O)c2nc(-c3ccccc3)sc2Cl)CC1` [Example 16, 4-{(S)-4-Carboxy-2-[(5-chloro-2-phenyl-thiazole-4-carbonyl)-amino]-butyryl}-piperazine-1-carboxylic acid butyl ester], 7 nM.
With `CCCCOC(=O)N1CCN(C(=O)[C@H](CCC(=O)O)NC(=O)c2nc(-c3ccccc3)sc2-c2ccccc2)CC1` [Example 17, 4-{(S)-4-Carboxy-2-[(2,5-diphenyl-thiazole-4-carbonyl)-amino]-butyryl}-piperazine-1-carboxylic acid butyl ester] the figure was 43 nM; with `CCCCOC(=O)N1CCN(C(=O)[C@H](CCC(=O)O)NC(=O)c2nc(-c3ccccc3)sc2[C@H]2C[C@@H]2COC)CC1` [Example 18, 4-((S)-4-Carboxy-2-{[5-((1S,2S)-2-methoxymethyl-cyclopropyl)-2-phenyl-thiazole-4-carbonyl]-amino}-butyryl)-piperazine-1-carboxylic acid butyl ester], 11 nM; with `CCCCOC(=O)N1CCN(C(=O)[C@H](CCC(=O)O)NC(=O)c2nc(-c3ccccc3)sc2/C=C/C(=O)O)CC1` [Example 19, 4-((S)-4-Carboxy-2-{[5-((E)-2-carboxy-vinyl)-2-phenyl-thiazole-4-carbonyl]-amino}-butyryl)-piperazine-1-carboxylic acid butyl ester], 6 nM.
`CCCCOC(=O)N1CCN(C(=O)[C@H](CCC(=O)O)NC(=O)c2nc(-c3ccccc3)sc2CCC(=O)O)CC1` [Example 20, 4-((S)-4-Carboxy-2-{[5-(2-carboxy-ethyl)-2-phenyl-thiazole-4-carbonyl]-amino}-butyryl)-piperazine-1-carboxylic acid butyl ester]: the IC50 was determined as 13 nM.
In the case of `CCCCOC(=O)N1CCN(C(=O)[C@H](CCC(=O)O)NC(=O)c2nc(-c3ccccc3)sc2/C=C/COC)CC1` [Example 21, 4-((S)-4-Carboxy-2-{[5-((E)-3-methoxy-propenyl)-2-phenyl-thiazole-4-carbonyl]-amino}-butyryl)-piperazine-1-carboxylic acid butyl ester] it was 19 nM; in that of `CCCCOC(=O)N1CCN(C(=O)[C@H](CCC(=O)O)NC(=O)c2nc(-c3ccccc3)sc2CCCOC)CC1` [Example 22, 4-((S)-4-Carboxy-2-{[5-(3-methoxy-propyl)-2-phenyl-thiazole-4-carbonyl]-amino}-butyryl)-piperazine-1-carboxylic acid butyl ester], 28 nM.
With `CCCCOC(=O)N1CCN(C(=O)[C@H](CCC(=O)O)NC(=O)c2nc(-c3ccccc3)sc2N2CCOCC2)CC1` [Example 23, 4-{(S)-4-Carboxy-2-[(5-morpholin-4-yl-2-phenyl-thiazole-4-carbonyl)-amino]-butyryl}-piperazine-1-carboxylic acid butyl ester] the figure was 39 nM; with `CCCCOC(=O)N1CCN(C(=O)[C@H](CCC(=O)O)NC(=O)c2nc(-c3ccccc3)sc2N2CCCC2)CC1` [Example 24, 4-{(S)-4-Carboxy-2-[(2-phenyl-5-pyrrolidin-1-yl-thiazole-4-carbonyl)-amino]-butyryl}-piperazine-1-carboxylic acid butyl ester], 7 nM.
For the molecule `CCCCOC(=O)N1CCN(C(=O)[C@H](CCC(=O)O)NC(=O)c2nc(-c3ccccc3)sc2N2CC[C@H](OC)C2)CC1` [Example 25, 4-((S)-4-Carboxy-2-{[5-((S)-3-methoxy-pyrrolidin-1-yl)-2-phenyl-thiazole-4-carbonyl]-amino}-butyryl)-piperazine-1-carboxylic acid butyl ester], the IC50 is 3 nM.
In the case of `CCCCOC(=O)N1CCN(C(=O)CNC(=O)c2csc(-c3ccccc3)n2)CC1` [Example 26, 4-{2-[(2-Phenyl-thiazole-4-carbonyl)-amino]-acetyl}-piperazine-1-carboxylic acid butyl ester] it was 94 nM; in that of `CCCCOC(=O)N1CCN(C(=O)CNC(=O)c2nc(-c3ccccc3)sc2NCCCO)CC1` [Example 27, 4-(2-{[5-(3-Hydroxy-propylamino)-2-phenyl-thiazole-4-carbonyl]-amino}-acetyl)-piperazine-1-carboxylic acid butyl ester], 34 nM; in that of `CCCCOC(=O)N1CCN(C(=O)CNC(=O)c2nc(-c3ccccc3)sc2NCCCOC)CC1` [Example 28, 4-(2-{[5-(3-Methoxy-propylamino)-2-phenyl-thiazole-4-carbonyl]-amino}-acetyl)-piperazine-1-carboxylic acid butyl ester], 47 nM.
